Key:
zebrafish [1] = assay: Zebrafish experiment: melanin production in the back (gray value); format: in vivo
Procedure: (§1) Cultivation conditions for zebrafish and fish eggs: a temperature: 28° C.±1° C.; light: irradiation with a fluorescent lamp; and a light/dark cycle: 14 h light/10 h dark.
1. A specific experimental method was as follows: • (1) In the afternoon of day 1, fish mating was conducted to produce 800 to 1,000 fish eggs in a same batch. […] In the afternoon of day 2, water was replaced by an E3 medium including a sample in a corresponding experimental group. • (3) Every morning thereafter, the original medium was replaced by a fresh E3 medium including a sample in a corresponding experimental group. • (4) After fish came out from an egg membrane, the egg membrane was removed, the plate was washed twice with an E3 medium, and an E3 medium including a sample in a corresponding experimental group was added, where a date on which the fish came out from the egg membrane was recorded as day 0. • (5) From day 1 to day 5, after a medium was changed every morning, 15 fish were randomly selected from each experimental group and tested under a stereo microscope to measure a gray value of a back. Survival rates of zebrafish under different drug treatments were counted.

zebrafish [2] = assay: Zebrafish experiment: survival rates under drug treatment; format: in vivo
Procedure: as §1
1. A specific experimental method was as follows: • (1) In the afternoon of day 1, fish mating was conducted to produce 800 to 1,000 fish eggs in a same batch. Experimental groups: an untreated group (negative control), a TYR-4 drug group A3 (10 μM), an arbutin group 1 (10 μM), and an arbutin group 2 (20 mM). • (2) In the morning of day 2, fish eggs were collected and dispensed in a 24-well plate with about 10 embryos per well, where 12 wells were set for each treatment group, that is, about 120 embryos were adopted for each treatment group. In the afternoon of day 2, water was replaced by an E3 medium including a sample in a corresponding experimental group. • (3) Every morning thereafter, the original medium was replaced by a fresh E3 medium including a sample in a corresponding experimental group. • (4) After fish came out from an egg membrane, the egg membrane was removed, the plate was washed twice with an E3 medium, and an E3 medium including a sample in a corresponding experimental group was added, where a date on which the fish came out from the egg membrane was recorded as day 0. • (5) From day 1 to day 5, after a medium was changed every morning, 15 fish were randomly selected from each experimental group and tested under a stereo microscope to measure a gray value of a back. Survival rates of zebrafish under different drug treatments were counted.

zebrafish [3] = assay: Zebrafish experiment: melanin precipitate after lysis on day 5; format: in vivo; settings: 10 μM
Procedure: 2. After photographing was completed on day 5, 100 zebrafish were taken from each group (only 80 to 90 live fish were left in the 10 μM arbutin group), transferred to a 1.5 mL EP tube, and washed twice with pure water, then 500 μL of 1 M Tris-HCl with a pH of 8.0 was added, ultrasonic lysis was conducted on ice (40% power, on 3 s/off 2 s per cycle, and ultrasonic time: 10 min), and a resulting lysis system was centrifuged at 12,000 rpm and 4° C. for 15 min to obtain a melanin precipitate.

[4] = Performance test: cytotoxicity; format: cell-based
Procedure: (§2) The cytotoxicity, TYR-inhibiting efficiency, and solubility of the molecule A3 were tested.

[5] = Performance test: solubility; format: physicochemical; settings: organic solvent or mixture; in DMSO
Procedure: as §2

TYR [6] = target: T1, TYR (Homo sapiens, UniProt P14679); assay: Performance test: TYR-inhibiting efficiency; format: cell-based; design: endogenous in cells
T1 sequence (P14679 19-529): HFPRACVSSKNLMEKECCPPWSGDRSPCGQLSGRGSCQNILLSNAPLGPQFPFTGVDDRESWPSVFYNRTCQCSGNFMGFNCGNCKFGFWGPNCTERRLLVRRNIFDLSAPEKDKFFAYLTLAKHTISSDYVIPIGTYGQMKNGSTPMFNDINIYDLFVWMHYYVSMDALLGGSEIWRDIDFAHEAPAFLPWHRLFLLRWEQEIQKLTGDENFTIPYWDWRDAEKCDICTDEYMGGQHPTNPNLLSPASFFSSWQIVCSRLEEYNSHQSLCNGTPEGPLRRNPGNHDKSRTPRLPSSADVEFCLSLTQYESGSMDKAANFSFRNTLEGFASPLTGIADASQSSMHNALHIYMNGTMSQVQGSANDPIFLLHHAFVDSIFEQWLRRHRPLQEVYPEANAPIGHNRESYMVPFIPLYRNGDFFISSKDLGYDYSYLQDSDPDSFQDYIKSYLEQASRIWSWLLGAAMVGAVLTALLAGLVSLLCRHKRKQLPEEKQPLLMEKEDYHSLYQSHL
Procedure: as §2
The PROTAC molecule of the present application has excellent solubility and safety (IC50>200 μM) and a low effective concentration (1 μM to 10 μM).

TYR [7] = target: T1, TYR; assay: TYR protein level by western blot in human melanoma cell line A375; format: cell-based; design: endogenous in cells; host or cells: MNT-1 human melanoma cells; settings: A375 cells, 24 h, 0.001-10 μmol/L, WB
Procedure: (§3) The human melanoma cell line A375 was treated for 24 h with the molecule A3 at a concentration gradient, and then a protein sample was collected and tested by western blot (WB) to determine a protein level of TYR. In the concentration gradient, final concentrations of the molecule A3 were 0.001 μmol/L, 0.01 μmol/L, 0.1 μmol/L, 1 μmol/L, and 10 μmol/L, respectively.

TYR [8] = target: T1, TYR; assay: TYR protein level by western blot in human melanoma cell line MNT-1; format: cell-based; design: endogenous in cells; host or cells: MNT-1 human melanoma cells; settings: MNT-1 cells, 24 h, 0.001-10 μmol/L, WB
Procedure: as §3, with “MNT-1” for “A375”, “WB” for “western blot (WB)”

TYR [9] = target: T1, TYR; assay: Degradation pathway detection with proteasome inhibitor MG132 in MNT-1 cells (WB of TYR); format: cell-based; design: endogenous in cells; host or cells: MNT-1 human melanoma cells; settings: 1 or 10 μM A3 + 10 μM MG132, 24 h
From the text: A molecular mechanism of the PROTAC molecule to degrade a target protein is as follows: molecular elements at two ends of the PROTAC molecule bind to the target protein and an ubiquitin ligase, respectively, such that the target protein is ubiquitinated and thus degraded by a proteasome. A proteasome inhibitor MG132 was used to determine whether an impact of the PROTAC molecule on a protein level of TYR was based on a proteasome degradation pathway.
A specific treatment method included the following steps: • (1) MNT-1 cells were plated on a 6-well plate and allowed to grow adherently until a cell confluency was 80%. • (2) The cells were treated according to the following groups: • (a) a normal control group; (b) a 1 μM A3 treatment group; (c) a 10 μM A3 treatment group; (d) a 10 μM MG132 treatment group; (e) a 1 μM A3+10 μM MG132 treatment group; and (f) a 10 μM A3+10 μM MG132 treatment group. • (3) 24 h after a treatment, cells in each group were collected and lysed, and a resulting total protein lysate was collected and tested by WB to determine an expression level of TYR.

Compound: O=C1CCC(N2Cc3c(NC(=O)CCCCCCNC(=O)c4cc[nH]c(=S)c4)cccc3C2=O)C(=O)N1 (stereo not shown) [A3]
- inhibitory effect on melanin production in zebrafish (gray value of back) (zebrafish [1]; 10 μM, day 1 to day 5): significant inhibitory effect on melanin production in zebrafish
- effect on melanin production compared with arbutin (zebrafish [1]; same concentration (10 μM)): better effect than common whitening agents such as arbutin
- toxic and side effects, death (zebrafish [2]; effective concentration (10 μM)): does not have any toxic and side effects and does not cause death
- melanin precipitate amount versus untreated group (zebrafish [3]): significantly smaller than the melanin precipitate amount in the untreated group
- IC50 [4]: > 200 µM
- solubility [5]: > 523 mg/mL
- EC50 (TYR [6]): < 10 µM
- inhibitory effect on TYR protein level (TYR [7]): has an inhibitory effect on TYR in the cell line A375
- inhibitory effect on TYR protein level (TYR [8]): has a significant inhibitory effect on TYR in the cell line MNT-1
- degradation effect on TYR after MG132 is added (TYR [9]): significantly inhibited after MG132 is added

Compound: OC[C@H]1O[C@@H](Oc2ccc(O)cc2)[C@H](O)[C@@H](O)[C@@H]1O [arbutin]
- day on which death occurs (zebrafish [2]; 10 μM): 4 days
- live fish left (zebrafish [2]; 10 μM, day 5): 80 to 90
- survival rate (zebrafish [2]; 10 μM, day 5): about 80%
- day on which death occurs (zebrafish [2]; 20 mM): 3 days
- survival (zebrafish [2]; 20 mM, day 5): basically dies
- melanin precipitate amount versus untreated group (zebrafish [3]): significantly smaller than the melanin precipitate amount in the untreated group

From patent publication US12280044B2, “Proteolysis-targeting chimera molecule and preparation method and use thereof” (GUANGZHOU MEDICAL UNIVERSITY, priority 2022, dated 2025)
